Assay results from the NIST ThermoML archive (doi:10.1021/je049671t).
± gives the expanded uncertainty stated by the source.

Test: xn = mol fraction of the nth substance listed
Details: Liquid, Vibrating tube method

CC(C)C [2-methylpropane] + CCCC
Details	mass density [kg/m3]
260 K, 6987.3 kPa, x2 = 0.5	613.2 ± 0.33
260 K, 7000.3 kPa, x2 = 0.25	608.81 ± 0.33
260 K, 7024.3 kPa, x2 = 0.75	617.88 ± 0.33
280 K, 491.4 kPa, x2 = 0.25	578.14 ± 0.27
280 K, 494.5 kPa, x2 = 0.75	588.49 ± 0.27
280 K, 514.1 kPa, x2 = 0.5	583.32 ± 0.27
280 K, 997.4 kPa, x2 = 0.5	584.09 ± 0.28
280 K, 997.5 kPa, x2 = 0.25	578.99 ± 0.28
280 K, 997.9 kPa, x2 = 0.75	589.24 ± 0.27
280 K, 1496 kPa, x2 = 0.25	579.79 ± 0.28
280 K, 1499.8 kPa, x2 = 0.75	590.03 ± 0.28
280 K, 1515.6 kPa, x2 = 0.5	584.89 ± 0.28
280 K, 1990.8 kPa, x2 = 0.5	585.62 ± 0.29
280 K, 1991.8 kPa, x2 = 0.75	590.76 ± 0.28
280 K, 2009.2 kPa, x2 = 0.25	580.63 ± 0.29
280 K, 2501 kPa, x2 = 0.75	591.51 ± 0.29
280 K, 2510.6 kPa, x2 = 0.5	586.43 ± 0.29
280 K, 2512.7 kPa, x2 = 0.25	581.42 ± 0.29
280 K, 3001.9 kPa, x2 = 0.75	592.24 ± 0.29
280 K, 3016.2 kPa, x2 = 0.5	587.2 ± 0.3
280 K, 3023 kPa, x2 = 0.25	582.23 ± 0.3
280 K, 3506.9 kPa, x2 = 0.25	582.98 ± 0.3
280 K, 3511.3 kPa, x2 = 0.75	592.97 ± 0.3
280 K, 3532.6 kPa, x2 = 0.5	587.97 ± 0.3
280 K, 4008 kPa, x2 = 0.25	583.74 ± 0.31
280 K, 4010.5 kPa, x2 = 0.75	593.64 ± 0.3
280 K, 4012.8 kPa, x2 = 0.5	588.67 ± 0.31
280 K, 4502.1 kPa, x2 = 0.75	594.34 ± 0.31
280 K, 4504.4 kPa, x2 = 0.25	584.53 ± 0.31
280 K, 4508.3 kPa, x2 = 0.5	589.4 ± 0.31
280 K, 4994.2 kPa, x2 = 0.75	595.02 ± 0.31
280 K, 5006.3 kPa, x2 = 0.25	585.27 ± 0.32
280 K, 5025.7 kPa, x2 = 0.5	590.15 ± 0.32
280 K, 5479.3 kPa, x2 = 0.5	590.82 ± 0.32
280 K, 5523.8 kPa, x2 = 0.25	586.04 ± 0.32
280 K, 5525.5 kPa, x2 = 0.75	595.77 ± 0.32
280 K, 5942.8 kPa, x2 = 0.75	596.37 ± 0.32
280 K, 5993.3 kPa, x2 = 0.5	591.55 ± 0.33
280 K, 6024.7 kPa, x2 = 0.25	586.78 ± 0.33
280 K, 6475.5 kPa, x2 = 0.75	597.09 ± 0.33
280 K, 6510.8 kPa, x2 = 0.25	587.5 ± 0.34
280 K, 6528.5 kPa, x2 = 0.5	592.3 ± 0.33
280 K, 6953.9 kPa, x2 = 0.5	592.89 ± 0.34
280 K, 6984.1 kPa, x2 = 0.25	588.18 ± 0.34
280 K, 7039.4 kPa, x2 = 0.75	597.8 ± 0.34
300 K, 312 kPa, x2 = 0.5	559.4 ± 0.28
300 K, 502.9 kPa, x2 = 0.25	554.17 ± 0.28
300 K, 505.7 kPa, x2 = 0.75	565.16 ± 0.28
300 K, 510.2 kPa, x2 = 0.5	559.82 ± 0.28
300 K, 983.9 kPa, x2 = 0.5	560.78 ± 0.28
300 K, 999.4 kPa, x2 = 0.25	555.23 ± 0.28
300 K, 1002.4 kPa, x2 = 0.75	566.11 ± 0.28
300 K, 1493 kPa, x2 = 0.75	567.04 ± 0.29
300 K, 1497.1 kPa, x2 = 0.25	556.26 ± 0.29
300 K, 1509.8 kPa, x2 = 0.5	561.83 ± 0.29
300 K, 1992.8 kPa, x2 = 0.5	562.77 ± 0.29
300 K, 1997.4 kPa, x2 = 0.25	557.29 ± 0.29
300 K, 2007.5 kPa, x2 = 0.75	568 ± 0.29
300 K, 2498.6 kPa, x2 = 0.25	558.33 ± 0.3
300 K, 2510.2 kPa, x2 = 0.75	568.9 ± 0.3
300 K, 2513.9 kPa, x2 = 0.5	563.78 ± 0.3
300 K, 2995.9 kPa, x2 = 0.75	569.79 ± 0.3
300 K, 3011.4 kPa, x2 = 0.5	564.72 ± 0.3
300 K, 3014 kPa, x2 = 0.25	559.36 ± 0.31
300 K, 3476.1 kPa, x2 = 0.5	565.59 ± 0.31
300 K, 3483.6 kPa, x2 = 0.75	570.68 ± 0.31
300 K, 3510.6 kPa, x2 = 0.25	560.33 ± 0.31
300 K, 3988.4 kPa, x2 = 0.5	566.54 ± 0.31
300 K, 4007.7 kPa, x2 = 0.25	561.28 ± 0.32
300 K, 4013.5 kPa, x2 = 0.75	571.62 ± 0.31
300 K, 4453.4 kPa, x2 = 0.5	567.4 ± 0.32
300 K, 4467 kPa, x2 = 0.75	572.38 ± 0.32
300 K, 4513.9 kPa, x2 = 0.25	562.25 ± 0.32
300 K, 4997.8 kPa, x2 = 0.75	573.31 ± 0.32
300 K, 5016.3 kPa, x2 = 0.25	563.17 ± 0.33
300 K, 5026.1 kPa, x2 = 0.5	568.4 ± 0.33
300 K, 5472.7 kPa, x2 = 0.5	569.19 ± 0.33
300 K, 5473.2 kPa, x2 = 0.75	574.11 ± 0.33

mass density [kg/m3]
Details	x2 = 0.25	x2 = 0.5	x2 = 0.75
260 K	600.04 ± 0.26	604.76 ± 0.26	609.84 ± 0.26
280 K	577.61 ± 0.27	582.79 ± 0.27	588.07 ± 0.27
